# Measured values published in patent US5106859A, “Certain 1,3,4-thiadiazole derivatives and anti-ulcer agent comprising said derivatives as active ingredient” (Tsumura & Co., priority 1988, dated 1992).
# Test system: mucosa of the stomach
# Test: Anti-ulcer test by oral administration (hydrochloric acid/ethanol-induced stomach mucosa damage)
# Assay type: in vivo, male rats of the Wistar strain
# Settings: 3 mg/kg orally in 0.5% CMC, 30 minutes before 150 M hydrochloric acid/60% ethanol; male Wistar rats, 8 per group; 1 hour after hydrochloric acid/ethanol
# Description: To male rats of the Wistar strain (each group consisting of 8 rats) having a body weight of 160 to 180 g, which had been fasted for 24 hours, was orally administered 3 mg/kg of the compound of formula I in the form of a suspension in a 0.5% solution of carboxymethyl cellulose (CMC), and after 30 minutes, 1 ml/200 of […] hydrochloric acid/60% ethanol was orally administered to the rats. One hour after the administration of the hydrochloric acid/ethanol, the rats were subjected to laparotomy, and the length of the damaged part formed on the mucosa of the stomach was compared, as the mucosa damage coefficient, with that in the control group. Only the 0.5% solution of CMC not containing the compound of formula I was orally administered to the control group. The inhibition ratio was calculated according to the following formula: [formula] wherein A represents the value of the control group and B represents the value of the group to which the compound of formula I was administered.
row,Compound,Inhibition Ratio (mucosa damage coefficient) [%]
1,"CCOC(=O)c1ccc(CSc2nnc(-c3cccnc3)s2)nc1 [Example 1, 2-[(5-Ethoxycarbonylpyridin-2-yl)methylthio]-5-(3-pyridyl)-1,3,4-thiadiazole]",42.9
2,"CCOC(=O)c1ccc(C[S+]([O-])c2nnc(-c3cccnc3)s2)nc1 (centres unmarked) [Example 2, 2-[(5-Ethoxycarbonylpyridin-2-yl)methylsulfinyl]-5-(3-pyridyl)-1,3,4-thiadiazole]",91.5
